Data published in patent US20140213508A1, “ANTIVIRAL MACROCYCLES” (priority 2012, published 2014).
Like-named read-outs stand apart in the source and are kept apart here. Numbered stars: 1 amine (or outer) side, 2 acyl side, 3 side chain; on linkers, the order of the positions; unused ones are H or OH. Square brackets hold non-standard residues; d marks the D form. Peptide text beside a SMILES is read from it. ξ: configuration not given here. X1 = CN(C)C1(CS[C@H](C(=O)[*:2])N(C)[*:1])CCC1; ξNMeBmt = C/C=C/C[C@@H](C)[C@@H](O)C(NC)C(=O)O; X2 = CC(C)[C@H](C(=O)[*:2])N(Cc1ccccc1)[*:1]; X3 = CCNC1(CS[C@H](C(=O)[*:2])N(C)[*:1])CC1; X4 = CNC1(CS[C@H](C(=O)[*:2])N(C)[*:1])CC1; NMeLeu(4-OH) = CN[C@@H](CC(C)(C)O)C(=O)O; NMeL = CN[C@@H](CC(C)C)C(=O)O; dNMeL = CN[C@H](CC(C)C)C(=O)O; dNMeV = CN[C@@H](C(=O)O)C(C)C; dAbu = CC[C@@H](N)C(=O)O

Experiments:
[1] = system: IFN-α production in human peripheral blood mononuclear cells; assay: IFN-α production in human PBMCs (ELISA); format: cell-based; conditions: 2 μM for 24 hours, individual wells
Description: Cryopreserved commercial or previously isolated PBMCs from HCV donors cryopreserved in RPMI1640)/Fetal Bovine/DMSO solution (50/40/10 v/v) were tested with compounds provided herein. […]
PBMC were cultured for 24 hours at 37° C. in RPMI cell culture medium in flat bottom 48 well-plates. Each well received 180 μL of cell suspension (2×10^6 cells/mL). […] At the end of the incubation, the plates are centrifuged at 200 times g for 5 minutes. The cell supernatants are collected and assayed by ELISA for cytokines IFN-α's (the detection reagent recognized 14 of the 15 known human IFN-α subtypes) and IFN-λ1 (IL-29). The cell pellet is washed twice with cold PBS and ATP content are determined by adding 100 μL per well of the Cell Titer Glo® (Promega, Madison, Wis.). Plates are then placed at −80° C. until protein analysis. For the protein analysis, plates are thawed, scraped and the protein content of the cell suspension determined using BCA Protein Assay Kit (23227, ThermoScientific, Rockford Ill.).

[2] = system: HBV entry into cultured hepatocytes (HepaRG cells); assay: Inhibition of HBV entry into HepaRG cells; format: cell-based; conditions: Hepatitis B virus, 288 h, read-out: IC50 HBV entry
[3] = system: IFN-λ1 (IL-29) production in human peripheral blood mononuclear cells; assay: IL-29 production in human PBMCs (ELISA); format: cell-based; conditions: 2 μM for 24 hours; for pg/mL IL29 Av.: average; for pg/mL IL29: individual wells
[4] = system: IFN-α production in human peripheral blood mononuclear cells; assay: IFN-α production in human PBMCs (ELISA); format: cell-based; conditions: 2 μM for 24 hours; for pg/mL IFNα Av.: average; for pg/mL IFNα: individual wells
[5] = system: Dengue virus DENV1 strain; assay: Dengue virus infection and replication assay in HuH7 cells; format: cell-based; conditions: read-out: IC50 Dengue virus production
Description: Compounds A, B, and F were tested for activity against Dengue virus in a cell-based assay of viral infection and replication. HuH7 cells were infected with the DENV1 strain (multiplicity of infection=0.1). After a 1 hour incubation to allow viral attachment and infection, compounds were added (at concentrations of 1, 3 and 9 μM, in triplicate). Incubation was continued for 5 days, and cells and media were then harvested for analysis. Viral replication was assessed by a real-time RT-PCR assay for virus present in the media, and cells were assayed for metabolic viability (MTT assay).

[6] = system: Influenza A H1N1 (A/CA/05/09); assay: Anti-influenza virus cytoprotection assay in MDCK cells; format: cell-based; conditions: in triplicate, read-out: IC50 against Influenza A H1N1
Cyclophilin B = Cyclophilin B (Homo sapiens, UniProt P23284); assay: Cyclophilin binding competitive ELISA; conditions: human recombinant cyclophilin
Cyclophilin B, sequence (P23284 34-216): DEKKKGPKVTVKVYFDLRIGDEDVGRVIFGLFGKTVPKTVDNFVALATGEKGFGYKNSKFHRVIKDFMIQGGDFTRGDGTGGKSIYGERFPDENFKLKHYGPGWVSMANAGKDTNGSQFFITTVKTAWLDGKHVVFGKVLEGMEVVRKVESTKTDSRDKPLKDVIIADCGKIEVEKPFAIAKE
Source text: Plates were washed as described above. […] Plates were washed as described above.

[7] = system: HCV RNA replicon Genotype 1b; assay: HCV replicon assay, 1b replicon (LUC); conditions: Hepatitis C virus, 72 h, read-out: mean EC50 Genotype 1b
Source text: Compounds were examined in the human hepatoma cell a HCV RNA replicon containing a stable luciferase (LUC) reporter. The HCV RNA replicon ET contains the 5′ end of HCV (with the HCV Internal Ribosome Entry Site (IRES) and the first few amino acids of the HCV core protein) which drives the production of neomycin phosphotransferase (NeoR) fusion protein. A luciferase reported is incorporated into 1b replicon. The EMCV IRES element controls the translation of the HCV structural proteins NS3-NS5. The NS3 protein cleaves the HCV polyprotein to release the mature NS3, NS4A, NS4B, NS5A and NS5B proteins that are required for HCV replication. At the 3′ end of the replicon is the authentic 3′ NTR of HCV. The activity of the LUC reporter is directly proportional to HCV replication levels and positive-control antiviral compounds produce a reproducible antiviral response using the LUC endpoint.
The compounds were dissolved in DMSO at six half-log concentrations. HCV replicon cells were plated out into 96 well plates dedicated for the analysis of cell numbers (cytotoxicity) or antiviral activity and the next day the compounds were added to the appropriate wells. […] Compound EC50 and EC90 values were derived from HCV RNA levels assessed as HCV RNA replicon derived LUC activity. […] Compound IC50 and IC90 values were calculated using a colorimetric assay as an indication of cell numbers and cytotoxicity. […]

Cyclophilin A = Cyclophilin A (Homo sapiens, UniProt P62937); assay: Cyclophilin binding competitive ELISA; conditions: human recombinant cyclophilin
Cyclophilin A, sequence (P62937 whole entry): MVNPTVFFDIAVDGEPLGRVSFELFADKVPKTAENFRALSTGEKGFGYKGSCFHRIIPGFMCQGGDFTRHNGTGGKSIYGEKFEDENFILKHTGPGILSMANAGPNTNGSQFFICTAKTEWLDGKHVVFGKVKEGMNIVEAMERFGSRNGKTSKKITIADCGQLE

[8] = donor CT2 (test 3) (HCV, cryopreserved PBMCs)
[9] = HepaRG cells, HBs level by ELISA 12 days post-infection
[10] = donor Healthy 2, background subtracted

SMILES	pg/mL IFNα [1, 8] [pg/mL]	IC50 [2, 9] [nM]	pg/mL IL29 ([3]; donor Healthy 1)	pg/mL IL29 Av. ([3]; donor Healthy 3)	pg/mL IL29 ([3]; donor Healthy 3)	pg/mL IFNα Av. ([4]; donor Healthy 1)	pg/mL IFNα ([4]; donor Healthy 1)	pg/mL IFNα Av. ([4]; donor Healthy 2)	pg/mL IFNα ([4]; donor Healthy 2)	pg/mL IFNα Av. ([4]; donor Healthy 3)	pg/mL IFNα ([4]; donor Healthy 3)	IC50 ([5]; DENV1, Huh-7, 120 h) [nM]	IC50 (Cyclophilin B) [nM]	EC50 [7] [nM]	IC50 (Cyclophilin A) [nM]	further results
CC=CC[C@@H](C)[C@@H](O)C1C(=O)NC(CC)C(=O)N(C)C(SCC2(N(C)C)CC2)C(=O)N(C)[C@@H](CC(C)(C)O)C(=O)NC(C(C)C)C(=O)N(C)C(CC(C)C)C(=O)NC(C)C(=O)NC(C)C(=O)N(C)C(CC(C)C)C(=O)N(C)C(CC(C)C)C(=O)N(C)C(C(C)C)C(=O)N1C (stereo in doubt) [Compound A]	7	1600	<LOQ	<LOQ	<LOQ	<LOQ	<LOQ	<LOQ	<LOQ	<LOQ	<LOQ	> 9000				pg/mL IFNα ([1]; donor CT2 (HCV), first test): 4 pg/mL; pg/mL IL29 Av. ([3]; donor Healthy 1): <LOQ
CC=CC[C@@H](C)[C@@H](O)C1C(=O)NC(CC)C(=O)N(C)C(SCC2(N(C)C(C)C)CC2)C(=O)N(C)[C@@H](CC(C)(C)O)C(=O)NC(C(C)C)C(=O)N(C)C(CC(C)C)C(=O)NC(C)C(=O)NC(C)C(=O)N(C)C(CC(C)C)C(=O)N(C)C(CC(C)C)C(=O)N(C)C(C(C)C)C(=O)N1C (stereo in doubt) [Compound B]	8	< 1000	20 pg/mL and <LOQ	<LOQ	<LOQ	<LOQ	<LOQ	<LOQ	<LOQ	<LOQ	<LOQ					pg/mL IL29 Av. [3, 10]: <LOQ; pg/mL IL29 [3, 10]: <LOQ; IC50 ([5]; Huh-7, 120 h, HuH7 cells, DENV1, 5 days, real-time RT-PCR of media): 1000 nM
C/C=C/C[C@@H](C)[C@@H](O)C1C(=O)N[C@H](CC)C(=O)N(C)[C@H](SCC2(N(C)C)CCC2)C(=O)N(C)[C@@H](CC(C)C)C(=O)N(Cc2ccccc2)[C@H](C(C)C)C(=O)N(C)[C@H](CC(C)C)C(=O)N[C@H](C)C(=O)N[C@@H](C)C(=O)N(C)[C@H](CC(C)C)C(=O)N(C)[C@H](CC(C)C)C(=O)N(C)[C@H](C(C)C)C(=O)N1C (stereo partly shown) [Compound F] (cyclo(A[dNMeL][dNMeL][dNMeV][ξNMeBmt][dAbu][X1][NMeL][X2][dNMeL][dA]))												1400				IC50 ([2]; HepaRG): < 1000 nM; IC50 [6]: 5400 nM
C/C=C/C[C@@H](C)[C@@H](O)C1C(=O)N[C@H](CC)C(=O)N(C)[C@H](SCC2(NC)CC2)C(=O)N(C)[C@@H](CC(C)(C)O)C(=O)N[C@H](C(C)C)C(=O)N(C)[C@H](CC(C)C)C(=O)N[C@H](C)C(=O)N[C@@H](C)C(=O)N(C)[C@H](CC(C)C)C(=O)N(C)[C@H](CC(C)C)C(=O)N(C)[C@H](C(C)C)C(=O)N1C (stereo partly shown) [Compound G] (cyclo(A[dNMeL][dNMeL][dNMeV][ξNMeBmt][dAbu][X4][NMeLeu(4-OH)][dV][dNMeL][dA]))													50	60	29	
C/C=C/C[C@@H](C)[C@@H](O)C1C(=O)N[C@H](CC)C(=O)N(C)[C@H](SCC2(NCC)CC2)C(=O)N(C)[C@@H](CC(C)(C)O)C(=O)N[C@H](C(C)C)C(=O)N(C)[C@H](CC(C)C)C(=O)N[C@H](C)C(=O)N[C@@H](C)C(=O)N(C)[C@H](CC(C)C)C(=O)N(C)[C@H](CC(C)C)C(=O)N(C)[C@H](C(C)C)C(=O)N1C (stereo partly shown) [Compound H] (cyclo(A[dNMeL][dNMeL][dNMeV][ξNMeBmt][dAbu][X3][NMeLeu(4-OH)][dV][dNMeL][dA]))													16	40	14	
